These results are taken from US7488712B2, “Histone deacetylase inhibitors and methods for producing the same” (Kyushu Institute of Technology, priority 2002, dated 2009).

One series deals with T1, human HDAC1 (Homo sapiens, UniProt Q13547).
T1 construct: FLAG; made in house; host or cells: 293T cells (transient transfection, anti-FLAG immunoprecipitation, FLAG peptide elution)
Put plainly: In vitro HDAC inhibition activity, [3H]-acetylated histone substrate, HDAC1. Format: biochemical. The following applies: Table 3.

In series [1] the test system is human wild-type p21 promoter. Description: p21 promoter-inducing activity (luciferase) in MFLL-9 cells. The series is classed as cell-based.
Another series can be described thus: in vitro. The following applies: human, Cancer-Cell-Selective Cytotoxicity, LD50 for normal cells/LD50 for cancer cells (TIG-3/HeLa). As to the method: Human normal lung cells (TIG-3) and human uterine cancer cells (HeLa) were used to test SCOP cytotoxicity. These TIG-3 and HeLa cells were cultured in a DMEM medium comprising 10% FBS at 37° C. in the presence of 5% carbon dioxide in a steam-saturated incubator. The TIG-3 and HeLa cells were plated in 100 μl/well of the above-described medium on a 96-well microtiter plate, at a density of 30,000 cells/well and 10,000 cells/well respectively. This was then cultured for 18 hours. Test compound solution diluted with medium was added to each well and culture was continued for another 48 hours.
30 μl of supernatant from each well was transferred to another 96-well microtiter plate (A), and the remaining supernatant was discarded. 100 μl of 0.5% Triton-X/PBS was added to each well to lyse the cells, and 30 μl was then transferred to each respective well of another 96-well microtiter plate (B). 30 μl of LDH-Cytotoxic Test (Wako) substrate solution was added to each well of these 96-well microtiter plates A and B, causing a color reaction. Once the color reaction was sufficiently progressed, it was stopped by adding 60 μl of a quenching solution. Color intensity was measured at OD560 nm using a microplate reader (Softmax). [A/(A+B)] was calculated as the free-LDH ratio. […] The higher the activity value for cancer-cell-selective cell damage (LD50 for normal cells/LD50 for cancer cells), the more that cancer-cell-selective apoptosis was induced.

Series [2] is described as follows: Stability in serum (FCS), read out by p21 promoter inducing activity. The series is classed as in vitro ADME. Particulars: FCS, 37° C.; activity at incubation time zero taken as 100%; FIG. 7. The procedure: The stability of SCOP 152, SCOP 304, and SCOP 402 in serum was evaluated by the method shown below: 1 μl of 10 mM SCOP 152, SCOP 304, and SCOP 402 was added to 99 μl FCS, and incubated at 37° C. Each hour, NaCl in a sufficient amount for saturation and 1 ml of ethyl acetate were added to each mixture. After extraction, from 800 μl of the ethyl acetate phase, the ethyl acetate was distilled off, and then 100 μl of DMSO was added to the residue. The resulting solution was further diluted ten times with DMSO and used to measure p21 promoter inducing activity. Activity at incubation time zero was taken as 100%, and activities were compared (FIG. 7).

T1 sequence (Q13547 whole entry): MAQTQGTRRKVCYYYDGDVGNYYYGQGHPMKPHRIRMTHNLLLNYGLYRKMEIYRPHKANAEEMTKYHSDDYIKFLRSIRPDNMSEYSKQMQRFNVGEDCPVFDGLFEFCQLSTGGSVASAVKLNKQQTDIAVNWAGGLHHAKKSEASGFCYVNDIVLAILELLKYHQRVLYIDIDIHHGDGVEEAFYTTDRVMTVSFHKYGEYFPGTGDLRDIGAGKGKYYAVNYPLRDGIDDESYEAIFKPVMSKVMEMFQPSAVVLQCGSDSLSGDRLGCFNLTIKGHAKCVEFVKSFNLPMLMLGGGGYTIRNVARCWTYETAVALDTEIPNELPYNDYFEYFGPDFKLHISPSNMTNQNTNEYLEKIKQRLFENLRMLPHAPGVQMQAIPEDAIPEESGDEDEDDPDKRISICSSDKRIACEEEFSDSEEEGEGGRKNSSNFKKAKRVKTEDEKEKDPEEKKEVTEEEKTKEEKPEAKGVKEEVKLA

For `CC[C@H](C)[C@@H]1NC(=O)[C@@H](Cc2ccc(OC)cc2)NC(=O)[C@H](CCCCCSSc2ccncc2)NC(=O)[C@H]2CCCN2C1=O` [SCOP 402, cyclo(-L-Am7(S4Py)-D-Tyr(Me)-L-Ile-D-Pro-)], the IC50 came out at 0.553 nM against human HDAC1 (hybrid with DTT (/DTT)) and 6.76 nM against human HDAC1 (hybrid, without DTT). For the same compound, the EC50 in series [1] (Table 3, hybrid with DTT (/DTT)) worked out at 470 nM; in series [1] (Table 3, hybrid, without DTT) it was 1310 nM. In addition, the selectivity ratio at 48 h in “in vitro” (with DTT (/DTT)) is 27.8; in the series “in vitro” (without DTT), 11.4. Besides, the “Retention of activity in serum” value in series [2] is on record as “stably retain activity in serum for longer than SCOP 152”.
